This note sets out measurements from ChEMBL document CHEMBL4382203, “Discovery, cocrystallization and biological evaluation of novel piperidine derivatives as high affinity Ls-AChBP ligands possessing α7 nAChR activities” (Eur J Med Chem, 2018).

Series [1] concerns the target Acetylcholine-binding protein (Lymnaea stagnalis, UniProt P58154). Briefly: Displacement of [3H]epibatidine from Lymnaea stagnalis acetylcholine-binding protein incubated for 60 mins followed by 3 hrs incubation in dark condition by microbeta counting analysis. In general terms: In a radioligand displacement assay an active substance lowers the binding of a labelled ligand.

Series [2] deals with T1, Neuronal acetylcholine receptor subunit alpha-7 (Homo sapiens, UniProt P36544). Briefly: Partial agonist activity at human alpha7 nAChR at 100 uM at -60 mV holding potential incubated for 1 sec followed by 60 secs compound washout relative to acetylcholine.
Series [3] concerns the target T1, Neuronal acetylcholine receptor subunit alpha-7. Briefly: Antagonist activity at human alpha7 nAChR assessed as inhibition of acetylcholine-induced response at 100 uM at -60 mV holding potential incubated for 30 secs followed by acetylcholine addition and subsequent compound washout for 30 secs relative to acetylcholine.
For series [4] the target is unchanged. In words: Antagonist activity at human alpha7 nAChR assessed as inhibition of acetylcholine-induced response at 1 uM at -60 mV holding potential incubated for 30 secs followed by acetylcholine addition and subsequent compound washout for 30 secs relative to acetylcholine.
The target in series [5] is Neuronal acetylcholine receptor; alpha4/beta2 (Homo sapiens) (UniProt P17787+P43681). In words: Agonist activity at alpha4beta2 nAChR (unknown origin) at -60 mV holding potential incubated for 1 sec followed by 60 secs compound washout. The series is classed as protein-complex assay.
In series [6] the target is T1, Neuronal acetylcholine receptor subunit alpha-7. In words: Partial agonist activity at human alpha7 nAChR expressed in Xenopus laevis oocytes at holding potential of -90 mV by patch clamp electrophysiological method. Format: cell-based. (The patch-clamp technique gives a direct electrical read-out from membranes.)
Series [7] concerns the target Acetylcholine-binding protein (Lymnaea stagnalis) (UniProt P58154). In words: Displacement of [3H]epibatidine from Lymnaea stagnalis acetylcholine-binding protein at 100 nM incubated for 60 mins followed by 3 hrs incubation in dark condition by microbeta counting analysis relative to control.
Series [8] addresses T1, Neuronal acetylcholine receptor subunit alpha-7. Briefly: Partial agonist activity at human alpha7 nAChR expressed in Xenopus laevis oocytes by voltage clamp electrophysiological method. Format: cell-based.
Series [9] has the same target. Briefly: Partial agonist activity at human alpha7 nAChR at -60 mV holding potential incubated for 1 sec followed by 60 secs compound washout.
Series [10] is described as follows: AUC (0 to infinity) in ICR mouse at 2 mg/kg, iv. Also on record: dose 2 mg/kg, route intravenous, time infinity. To be noted: in vivo. Format: ADME, organism-based.
Series [11] is described as follows: Clearance in ICR mouse at 2 mg/kg, iv. The series is classed as ADME, organism-based. To be noted: in vivo.
Series [12] in a line: Apparent volume of distribution in ICR mouse at 2 mg/kg, iv. The series is classed as ADME, organism-based. The settings on record: in vivo, read-out: Vz.
Series [13] in a line: Half life in ICR mouse at 2 mg/kg, iv. The series is classed as ADME, organism-based. To be noted: in vivo.
A short description of series [14]: Tmax in ICR mouse at 2 mg/kg, iv. Format: ADME, organism-based. To be noted: in vivo.
Series [15] is described as follows: Ratio of drug level in blood to plasma in ICR mouse at 2 mg/kg, iv after 4 hrs. Format: ADME, organism-based. The settings on record: blood and plasma.
Series [16] can be described thus: Cmax in ICR mouse at 2 mg/kg, iv. The series is classed as ADME, organism-based. Also on record: dose 2 mg/kg, route intravenous. To be noted: in vivo.
A short description of series [17]: AUC (0 to infinity) in ICR mouse at 10 mg/kg, po. The series is classed as ADME, organism-based. Also on record: dose 10 mg/kg, time infinity, route oral. To be noted: in vivo.
The nature of series [18]: Half life in ICR mouse at 10 mg/kg, po. The settings on record: in vivo. The series is classed as ADME, organism-based.
Series [19] in a line: Tmax in ICR mouse at 10 mg/kg, po. To be noted: in vivo. The series is classed as ADME, organism-based.
Series [20] can be described thus: Cmax in ICR mouse at 10 mg/kg, po. Format: ADME, organism-based. Also on record: dose 10 mg/kg, route oral. The settings on record: in vivo.
Series [21] is described as follows: Oral bioavailability in ICR mouse at 10 mg/kg. The settings on record: in vivo. Format: ADME, organism-based.
The nature of series [22]: Ratio of drug level in blood to plasma in ICR mouse at 10 mg/kg, po after 4 hrs. The settings on record: blood and plasma. The series is classed as ADME, organism-based.

The source made the active and inactive calls. The rule behind the calls is not given here.

Chain of Acetylcholine-binding protein (P58154 whole entry): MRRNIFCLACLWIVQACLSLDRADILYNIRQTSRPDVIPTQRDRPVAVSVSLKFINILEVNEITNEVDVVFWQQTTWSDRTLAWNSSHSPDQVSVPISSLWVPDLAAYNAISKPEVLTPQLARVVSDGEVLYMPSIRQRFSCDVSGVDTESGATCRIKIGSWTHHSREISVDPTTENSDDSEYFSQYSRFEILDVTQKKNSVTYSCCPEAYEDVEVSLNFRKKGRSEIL
Chain of Acetylcholine-binding protein (Lymnaea stagnalis) (P58154 whole entry): as above
T1 sequence (P36544 whole entry): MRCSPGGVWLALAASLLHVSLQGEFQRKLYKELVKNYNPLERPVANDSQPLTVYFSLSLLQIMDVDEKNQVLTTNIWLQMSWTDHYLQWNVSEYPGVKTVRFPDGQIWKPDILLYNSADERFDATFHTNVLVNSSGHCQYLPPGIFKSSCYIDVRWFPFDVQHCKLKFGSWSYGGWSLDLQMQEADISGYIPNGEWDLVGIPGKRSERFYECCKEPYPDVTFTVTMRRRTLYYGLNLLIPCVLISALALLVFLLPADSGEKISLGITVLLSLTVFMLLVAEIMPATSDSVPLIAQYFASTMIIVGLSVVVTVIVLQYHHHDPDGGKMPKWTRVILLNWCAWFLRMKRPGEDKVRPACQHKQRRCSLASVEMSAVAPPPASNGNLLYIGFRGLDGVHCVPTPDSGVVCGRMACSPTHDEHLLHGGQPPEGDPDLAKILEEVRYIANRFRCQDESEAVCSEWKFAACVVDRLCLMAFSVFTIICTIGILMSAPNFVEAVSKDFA

Usually Ki stands for the dissociation constant of the complex between target and ligand, obtained from inhibition or displacement. A lower Ki goes with a stronger hold on the target. In series [1], `Clc1ccc(CC2(COc3cccnc3)CCCNC2)cc1Cl` (centres undefined) had a Ki of 2.27 nM.

Regarding `Cc1ccc(CC2(COc3cccnc3)CCCNC2)cc1` (centres undefined), in series [1], the affinity corresponds to a Ki of 16.5 nM. The molecule further came in with an Efficacy in [2] of 13%.

`Clc1cccc(CC2(COc3cncnc3)CCCNC2)c1` (centres undefined): in series [1], the affinity corresponds to a Ki of 5.22 nM.

`Cc1cccc(CC2(COc3cccnc3)CCCNC2)c1` (centres undefined): the affinity in series [1] corresponds to a Ki of 12.4 nM. Also, the Efficacy in series [2] was 14.8%.

In the case of `Clc1cccc(CC2(COc3ccc(Br)nc3)CCCNC2)c1` (centres undefined), the Ki in [1] came out at 11.4 nM.

Take `OCCCC#Cc1cncc(OCC2(Cc3cccc(Cl)c3)CCCNC2)c1` (centres undefined): in [1], the Ki was 12.5 nM.

For `Clc1cccc(CC2(COc3cncc(Br)c3)CCCNC2)c1` (centres undefined), the affinity in [1], expressed as Ki, was 22.2 nM.

One may read the inhibition as the percentage by which the read-out fell short of the control. As for `Clc1ccc(C[C@]2(COc3cccnc3)CCCNC2)cc1Cl`, in series [1], the affinity, expressed as Ki, was 26.2 nM. In series [2], this molecule showed an Efficacy of 5.5%. Also, the figures for the inhibition in series [3] and in series [4] were 90.8% and 27.2%, respectively. Besides, in series [5], the result was inactive.

Broadly, the EC50 is the midpoint of the concentration-response curve. A high value points to a less potent agent. As for `Cc1ccc(-c2ccc(O[C@H]3CN4CCC3CC4)cn2)cc1`, the EC50 in series [6] amounted to 39 nM.

For the molecule `Clc1cccc(CC2(COc3ccc(Cl)nc3)CCCNC2)c1` (centres undefined), the Ki in series [1] turned out to be 3.39 nM. This molecule also showed an Efficacy in series [2] of 4.4%.

In series [1], `Clc1cccc(CC2(COc3cncc(-c4ccccc4)c3)CCCNC2)c1` (centres undefined) came in with a Ki of over 67.7 nM. The inhibition in series [7] is under 50%.

As for `FC(F)(F)c1cccc(CC2(COc3cccnc3)CCCNC2)c1` (centres undefined), the inhibition constant (Ki) in series [1] turned out to be 5.93 nM. The molecule also showed an Efficacy in series [2] of 28%. The outcome in series [5] was inactive.

In series [1], `c1ccc(-c2ccc(CC3(COc4cccnc4)CCCNC3)cc2)cc1` (centres undefined) registered a Ki of 11.7 nM. In series [2], this molecule came in with an Efficacy of 7.9%. Further, the values for the inhibition in series [3] and in series [4] were 96.5% and 53.4%, respectively.

Consider `Clc1cccc(CC2(COc3cccnc3)CCCNC2)c1` (centres undefined), for which the Ki in series [1] turned out to be 5.3 nM. Moreover, in [2], the Efficacy was found to be 33.8%.

In [1], `Clc1cccc(CC2(COc3ccccn3)CCCNC2)c1` (centres undefined) yielded a Ki of over 67.7 nM. Further, in series [7], the inhibition is under 50%.

Turning to `FC(F)(F)c1ccccc1CC1(COc2cccnc2)CCCNC1` (centres undefined), in series [1], the Ki is 17.2 nM. In [2], this molecule registered an Efficacy of 13.5%.

For `Clc1cccc(CC2(COc3cccnc3)CCCNC2)c1Cl` (centres undefined), affinity in [1] was put at a Ki of 6.02 nM. In series [2], this molecule gave an Efficacy of 19.5%.

For `Clc1cccc(CC2(COc3ccc4c(c3)[nH]c3ccccc34)CCCNC2)c1` (centres undefined), the Ki in series [1] was over 67.7 nM. The molecule also yielded an inhibition in [7] of under 50%.

`O=C(N[C@H]1CN2CCC1CC2)c1cc2cccc(Cl)c2s1` [ENCENICLINE] showed an EC50 in [8] of 390 nM.

In general, Emax refers to the greatest response seen or fitted, relative to the assay's reference. As usually defined, the AUC(0-inf) is the area under the concentration-time curve extrapolated to infinity. Lower therefore signals less exposure. As usually defined, the clearance is the volume of plasma or blood freed of the substance per unit of time. Higher therefore signals a high capacity for elimination. As a reminder, the half-life is how long it takes for the measured level to halve. As usually defined, the Tmax is the time at which the peak concentration occurs. As a reminder, the Cmax is the highest concentration seen after dosing. Broadly, the bioavailability is dose-corrected exposure relative to a reference, in per cent. Lower therefore signals poor availability. `Clc1ccc(C[C@@]2(COc3cccnc3)CCCNC2)cc1Cl` displayed a Ki in series [1] of 0.86 nM. Besides, the Efficacy in series [2] is 33.3%. In addition, the Emax in [2] was determined as 36.1%. In addition, in series [9], the EC50 is 20400 nM. Also, the AUC(0-inf) was determined as 0.7 µM·h in [10] and 1.9 µM·h in [17]. In [11], this molecule had a clearance of 129 mL/min/kg. In series [12], the Vd is 13.3 L/kg. Moreover, the half-life in [13] is 72 min; in series [18], 102 min. In addition, the Tmax in series [14] worked out at 4.8 min; in series [19], 30 min. The blood plasma ratio at 4 h in series [15] worked out at 8.8; in series [22], 5.1. Further, the results for the Cmax in [16] and in series [20] were 1000 nM and 1100 nM, respectively. Further, in series [21], the bioavailability stood at 51.2%. Besides, the outcome in series [5] was inactive.

On to `Cc1ccccc1CC1(COc2cccnc2)CCCNC1` (centres undefined), for which, in series [1], the affinity, expressed as Ki, was 18.8 nM. This molecule also had an Efficacy in series [2] of 12.8%.

For the molecule `OCCC#Cc1ccc(OCC2(Cc3cccc(Cl)c3)CCCNC2)cn1` (centres undefined), the affinity in series [1], expressed as Ki, was 29 nM. In other words, the double-digit nanomolar range.

Consider `OCCC#Cc1cncc(OCC2(Cc3cccc(Cl)c3)CCCNC2)c1` (centres undefined), for which the Ki in series [1] came to 5.57 nM.

For the molecule `Clc1cccc(CC2(COc3ccncc3)CCCNC2)c1` (centres undefined), in series [1], the Ki is 16.5 nM.

As for `OCCCCC#Cc1ccc(OCC2(Cc3cccc(Cl)c3)CCCNC2)cn1` (centres undefined), the Ki in series [1] is 16 nM. The Efficacy in [2] came out at 8.5%.

Take `Clc1ccc(CC2(COc3cccnc3)CCNCC2)cc1Cl`: the Efficacy in series [2] turned out to be 3.1%. Moreover, the inhibition in series [3] amounted to 94%; in series [4], 27.2%. Besides, in series [5], the outcome was inactive.

Consider `OCCCCC#Cc1cncc(OCC2(Cc3cccc(Cl)c3)CCCNC2)c1` (centres undefined), for which the Ki in [1] amounted to 3.47 nM. In [2], the Efficacy was found to be 4.5%. In addition, the inhibition is 97.3% in series [3] and 12.8% in series [4]. Also, the result in [5] was inactive.

In series [1], `Clc1ccccc1CC1(COc2cccnc2)CCCNC1` (centres undefined) yielded a Ki of 13 nM. For the same molecule, the Efficacy in [2] amounted to 16.8%.

Consider `Clc1ccc(CC2(COc3cccnc3)CCCNC2)cc1` (centres undefined), for which the affinity in series [1], expressed as Ki, was 9.77 nM. For the same molecule, in series [2], the Efficacy amounted to 18.2%.

Take `FC(F)(F)c1ccc(CC2(COc3cccnc3)CCCNC2)cc1` (centres undefined): the Ki in series [1] was 11.9 nM. In [2], the Efficacy was found to be 17.5%.

The molecule `OCCCC#Cc1ccc(OCC2(Cc3cccc(Cl)c3)CCCNC2)cn1` (centres undefined) came in with a Ki in series [1] of over 67.7 nM. This molecule also yielded an inhibition in series [7] of under 50%.
